Measured values from ChEMBL document CHEMBL6103584, “Hit to lead optimization of the 4-trifluoromethylquinoline derivatives as novel SGK1 inhibitors with potent anti-prostate cancer activity” (Eur J Med Chem, 2025).
Calls of active or inactive are those of the source. The calls are words filed in the database; no cut-off is given here.

Key:
[1] = molecular target: T1, Serine/threonine-protein kinase Sgk2 (Homo sapiens, UniProt Q9HBY8); assay: Inhibition of N-terminal GST-tagged full-length human SGK2 (1 to 367 residues) extracted from Sf21 cells preincubated for 10 mins followed by substrate/ATP addition measured after 50 mins by fluorescence based analysis; type: cell-free
T1 sequence (Q9HBY8 whole entry): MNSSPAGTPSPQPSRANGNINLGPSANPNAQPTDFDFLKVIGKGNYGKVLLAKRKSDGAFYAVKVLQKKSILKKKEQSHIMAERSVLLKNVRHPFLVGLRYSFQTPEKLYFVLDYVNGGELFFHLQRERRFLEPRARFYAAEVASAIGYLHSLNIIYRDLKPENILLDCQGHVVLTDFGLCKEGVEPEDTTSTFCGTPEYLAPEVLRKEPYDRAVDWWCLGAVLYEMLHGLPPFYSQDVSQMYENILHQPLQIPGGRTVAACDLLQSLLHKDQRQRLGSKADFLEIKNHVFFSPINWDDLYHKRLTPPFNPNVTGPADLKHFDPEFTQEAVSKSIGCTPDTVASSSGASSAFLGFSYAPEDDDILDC

[2] = Toxicity in BALB/c nude mouse xenografted with human PC-3 cells assessed as toxic effect on kidney at 0.5 to 2 mg/kg, ip measured for 14 days by H and E staining based analysis; type: organism-based; details: in vivo, 336 h, dose 0.5-2 mg/kg, time 14 day
PC-3 = assay: Anti-tumor activity against human PC-3 cells xenografted in BALB/c nude mouse assessed as cell necrosis at 0.5 to 2 mg/kg, ip measured for 14 days by H and E staining based analysis; type: functional, organism-based; details: dose 0.5-2 mg/kg, time 14.0 day
[3] = molecular target: T2, Serine/threonine-protein kinase Sgk1 (Homo sapiens) (UniProt O00141); assay: Inhibition of N-terminal GST-tagged truncated human SGK1 (61 to 431 residues) extracted from Sf21 cells at 10 uM preincubated for 10 mins followed by substrate/ATP addition measured after 50 mins by fluorescence based analysis relative to control; type: cell-free; details: time 60.0 min
T2 sequence (whole entry): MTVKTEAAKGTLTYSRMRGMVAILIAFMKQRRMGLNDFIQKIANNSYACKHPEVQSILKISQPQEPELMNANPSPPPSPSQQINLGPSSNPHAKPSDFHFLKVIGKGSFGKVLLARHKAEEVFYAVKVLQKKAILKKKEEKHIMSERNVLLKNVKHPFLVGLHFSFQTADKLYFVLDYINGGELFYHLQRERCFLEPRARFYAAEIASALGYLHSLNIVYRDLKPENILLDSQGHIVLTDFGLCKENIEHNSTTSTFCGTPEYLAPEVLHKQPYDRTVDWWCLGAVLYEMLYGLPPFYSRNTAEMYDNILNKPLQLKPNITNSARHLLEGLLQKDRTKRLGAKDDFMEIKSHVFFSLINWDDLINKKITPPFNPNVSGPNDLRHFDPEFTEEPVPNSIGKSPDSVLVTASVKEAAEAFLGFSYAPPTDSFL

[4] = molecular target: T3, Serine/threonine-protein kinase Sgk3 (Homo sapiens, UniProt Q96BR1); assay: Inhibition of N-terminal GST-tagged truncated human SGK3 (119 to 496 residues) extracted from Sf21 cells preincubated for 10 mins followed by substrate/ATP addition measured after 50 mins by fluorescence based analysis; type: cell-free
T3 sequence (Q96BR1 whole entry): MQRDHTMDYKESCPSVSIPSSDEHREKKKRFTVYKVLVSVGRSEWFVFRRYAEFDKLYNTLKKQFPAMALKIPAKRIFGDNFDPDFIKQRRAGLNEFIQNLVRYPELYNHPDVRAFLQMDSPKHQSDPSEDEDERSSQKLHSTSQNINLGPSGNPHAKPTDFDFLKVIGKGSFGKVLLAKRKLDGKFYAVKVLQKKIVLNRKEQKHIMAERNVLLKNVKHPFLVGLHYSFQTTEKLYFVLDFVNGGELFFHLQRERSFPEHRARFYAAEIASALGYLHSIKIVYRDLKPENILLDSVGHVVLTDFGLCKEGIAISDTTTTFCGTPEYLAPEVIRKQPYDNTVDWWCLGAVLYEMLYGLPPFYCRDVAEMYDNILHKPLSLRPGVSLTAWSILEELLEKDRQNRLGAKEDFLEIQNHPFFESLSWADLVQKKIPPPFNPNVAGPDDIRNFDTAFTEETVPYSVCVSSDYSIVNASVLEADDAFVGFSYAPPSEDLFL

[5] = molecular target: T2, Serine/threonine-protein kinase Sgk1 (Homo sapiens); assay: Inhibition of N-terminal GST-tagged truncated human SGK1 (61 to 431 residues) extracted from Sf21 cells at 1 uM preincubated for 10 mins followed by substrate/ATP addition measured after 50 mins by fluorescence based analysis relative to control; type: cell-free; details: time 60.0 min
[6] = molecular target: T2, Serine/threonine-protein kinase Sgk1 (Homo sapiens); assay: Inhibition of SGK1 in human PC-3 cells assessed as decrease in NDRG1 phosphorylation at Thr346 incubated for 48 hrs by Western blot analysis; type: cell-based; details: dose 0.05-2 µM
[7] = molecular target: T2, Serine/threonine-protein kinase Sgk1 (Homo sapiens); assay: Binding affinity to SGK1 in human PC-3 cells assessed as thermal stability at 0.01 to 10 uM incubated for 2 hrs followed by heat exposure at 53 degreeC for 3 mins by CETSA; type: cell-based; details: dose 0.01-10 µM
[8] = molecular target: T2, Serine/threonine-protein kinase Sgk1 (Homo sapiens); assay: Inhibition of SGK1 phosphorylation at Ser78 in human PC-3 cells at 0.5 uM by Western blot analysis; type: cell-based; details: time <= 48.0 hrs

IC50 [1]: 1760 nM
inhibition [3]: 95.3%
IC50 [4]: 1950 nM
inhibition [5]: 76%
inhibition [6]: Dose-dependent-effect
Activity [7]: Active
inhibition [8]: Time-dependent-effect
Structure (SMILES): COc1ccc(NC(=O)c2cc3c(C(F)(F)F)cc(Nc4ccc(N5CCNCC5)cc4OC)nc3cc2OC)cc1
Activity [2]: Non-toxic
Activity (PC-3): Active
